Test results taken from patent US7670767B1, “Genetic alterations associated with cancer” (The Regents of the University of California, priority 1997, dated 2010).

Assays:
[1] = test system: OVCAR3 cells; assay: MTT viability assay; format: cell-based, human
Description: NOE, MC[MUT] or OVCAR3 (as indicated) were starved of serum overnight and then cultured in 0.5% serum. […] Cell proliferation and viability assay was assessed before and after treatment with the PI3-kinase inhibitor LY294002 as follows. Cells were cultured in 96-well plates (15×10^3 cells/well) and serum starved overnight prior to the addition of LY294002 (Calbiochem) at various concentrations. […] For viability assay, cells were incubated with LY294002 as described above for 96 hours. MTT (25 ml of 5 ml/ml in PBS) was added to each well and incubated at 37° C. for 2 hours. Cells were then lysed by addition of 100 ml lysis buffer (20% SDS in 50% N,N-dimethylformamide, pH4.7). The cultures were set at 37° C. overnight and measured by microplate reader at 570 nm wavelength. Percent Maximum was converted from OD570 as indicated above.

[2] = test system: OVCAR3 cells; assay: programmed cell death, fluorescence based measurement of free DNA ends (Apo direct); set-up: species or system human
Description: This decrease in viability (FIG. 5B) was associated with an increased rate of programmed cell death at 24 (24% vs 51%) and 48 hour (22% vs 52%) as assessed by a fluorescence based measurement of free DNA ends Apo direct, Phoenix Flow Systems.

SMILES: O=c1cc(N2CCOCC2)oc2c(-c3ccccc3)cccc12 [LY294002]
- times more sensitive to the effect of LY294002 (OVCAR3 vs NOE or MCF10F) ([1]; in serum free media): 100 times
- times more sensitive to the effect of LY294002 (OVCAR3 vs NOE or MCF10F) ([1]; in the presence of 0.5% FCS): 10 times
- rate of programmed cell death ([2]; 24 hour, printed as 24% vs 51%): 51%
- rate of programmed cell death ([2]; 48 hour, printed as 22% vs 52%): 52%
